Data taken from patent publication US12304891B2, “Removal of Al-salts, HCl, NaCl and organic by-product from DIOPAT suspension by means of ceramic membranes in strong acidic conditions at high temperature” (BASF SE, priority 2018, dated 2025).

Format: physicochemical
Protocol: The temperature was adjusted to 90° C. The 2,4-DHBP concentration in the feed DIOPAT suspension of the diafiltration was about 0.32%. […] Thus, some 2,4-DHBP probably was already precipitated and had to be brought back into solution during the DF process. In the DF process, the DIOPAT suspension was held at 90° C. and was permanently washed with 12 kg fresh water. During the washing process, the DIOPAT concentration stayed constant. To separate the Al-salts and organic by-products, the DIOPAT suspension was pumped from the feed vessel to a ceramic membrane module and from there back to the feed vessel. In the ceramic membrane, the dissolved components (Al-salts and some org. components such as 2,4-DHBP) passed through the membrane. The DIOPAT particles stayed in the suspension and went back to the feed vessel. The permeate was send to the waste water treatment plant. In total, the suspension at the beginning of the membrane process (suspension after precipitation) was washed with a washing factor of 4.5. Then, the Al-salt concentration in the retentate was less than approx. 65 ppm.

solubility in acidic water: about 0.18%
Compound: O=C(c1ccccc1)c1ccc(O)cc1O [2,4-DHBP, 2,4-dihydroxybenzophenone]
